# Test results taken from patent US11597703B2, “Caspase inhibitors and methods of use thereof” (Histogen Inc., priority 2019, dated 2023).
# Key:
# Caspase-3 = biological target: T1, Caspase-3 (Homo sapiens, UniProt P42574); experiment: Caspase-3 enzymatic inhibition assay, IC50; type: biochemical; details: read-out: Caspase 3 enzyme inhibition IC50
# T1 construct: purchased Enzo Biosciences
# T1 sequence (P42574 29-175 limits assumed): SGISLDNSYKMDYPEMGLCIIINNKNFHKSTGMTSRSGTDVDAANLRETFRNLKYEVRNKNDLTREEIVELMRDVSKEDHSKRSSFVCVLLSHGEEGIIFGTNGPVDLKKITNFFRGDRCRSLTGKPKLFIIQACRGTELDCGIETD
# T1 sequence (P42574 176-277 limits assumed): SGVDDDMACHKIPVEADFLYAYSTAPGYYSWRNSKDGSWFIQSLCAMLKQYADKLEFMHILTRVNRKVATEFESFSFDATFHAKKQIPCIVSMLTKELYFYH
# Experimental: (§1) Human caspases were purchased from Enzo Biosciences and used according to the manufacturer's instructions. An exemplary caspase assay, for Caspase-1, is provided below:
# (§2) Enzymatic assays were conducted for Caspase-3, 6 and 7 activity according to the manufacture's instructions.
# Caspase-1 = biological target: T2, Caspase-1 (Homo sapiens, UniProt P29466); experiment: Caspase-1 enzyme inhibition assay (Ac-YVAD-pNA substrate), IC50; type: biochemical
# T2 construct: purchased Enzo Biosciences
# T2 sequence (P29466 120-297 limits assumed): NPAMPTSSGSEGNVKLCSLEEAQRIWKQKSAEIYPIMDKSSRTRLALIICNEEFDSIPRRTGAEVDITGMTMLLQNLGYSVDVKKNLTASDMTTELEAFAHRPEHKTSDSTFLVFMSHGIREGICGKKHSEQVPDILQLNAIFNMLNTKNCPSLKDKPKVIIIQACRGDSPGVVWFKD
# T2 sequence (P29466 317-404 limits assumed): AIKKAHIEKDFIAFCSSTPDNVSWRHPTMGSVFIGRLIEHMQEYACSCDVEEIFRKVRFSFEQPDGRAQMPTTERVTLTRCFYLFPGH
# Experimental: as §1
# Caspase-1 was diluted to 10 U/μl in assay buffer consisting of 50 mM HEPES, pH 7.4, 100 mM NaCl, 0.1% CHAPS, 1 mM EDTA, 10% glycerol and 10 mM DTT.
# 45 μl of assay buffer was added into ½ volume microtiter plate. The plate was allowed to equilibrate to assay temperature. 5 μl of Caspase-1 (10 U/μl) was added to each appropriate well. Two 2 blank wells containing assay buffer alone without Caspase-1 were included on the plate.
# The reaction was started by the addition of 50 μl Ac-YVAD-pNA substrate, for a final substrate concentration of 200 μM. The reaction was continuously monitored at 405 nm. The data was graphed as OD405 nm vs time, and the slope was determined over the linear portion of the curve. The rates in OD/min were converted to substrate/min using an extinction coefficient for p-nitroaniline of 10,500M-1 cm-1, and were adjusted for pathlength of sample. […]
# Caspase 7 = biological target: T3, Caspase 7 (Homo sapiens, UniProt P55210); experiment: Caspase 7 enzymatic inhibition assay, IC50; type: biochemical; details: read-out: Caspase 7 enzyme inhibition IC50
# T3 construct: purchased Enzo Biosciences
# T3 sequence (P55210 24-198 limits assumed): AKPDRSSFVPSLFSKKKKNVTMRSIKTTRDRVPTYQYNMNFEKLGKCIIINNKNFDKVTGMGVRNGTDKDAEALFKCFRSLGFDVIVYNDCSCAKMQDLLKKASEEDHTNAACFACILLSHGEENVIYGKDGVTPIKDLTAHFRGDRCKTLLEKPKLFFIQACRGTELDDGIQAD
# T3 sequence (P55210 207-303 limits assumed): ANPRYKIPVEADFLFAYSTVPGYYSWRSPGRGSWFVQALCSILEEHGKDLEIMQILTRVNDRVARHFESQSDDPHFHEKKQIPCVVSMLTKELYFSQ
# Experimental: as §1, §2
# Caspase 6 = biological target: T4, Caspase 6 (Homo sapiens, UniProt P55212); experiment: Caspase 6 enzymatic inhibition assay, IC50; type: biochemical; details: read-out: Caspase 6 enzyme inhibition IC50
# T4 construct: purchased Enzo Biosciences
# T4 sequence (P55212 24-179 limits assumed): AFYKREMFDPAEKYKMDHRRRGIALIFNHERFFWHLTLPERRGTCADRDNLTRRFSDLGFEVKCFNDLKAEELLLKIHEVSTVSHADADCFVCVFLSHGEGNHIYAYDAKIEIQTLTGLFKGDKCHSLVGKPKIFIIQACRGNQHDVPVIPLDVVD
# T4 sequence (P55212 194-293 limits assumed): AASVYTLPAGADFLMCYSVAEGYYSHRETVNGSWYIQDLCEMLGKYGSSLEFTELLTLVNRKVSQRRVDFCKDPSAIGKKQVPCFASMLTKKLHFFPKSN
# Experimental: as §1, §2
# [1] = Rodent model of ulcerative colitis induced by TNBS; type: in vivo, Sprague-Dawley rats
# Experimental: Compounds of the present invention were tested by oral administration in a rodent model of ulcerative colitis (UC). Ulcerative colitis was induced in Sprague-Dawley rats by instillation of 48 mg/kg […], (TNBS), through the rectum. Testing included 4 active treatment groups and one vehicle control group.
# Effect of TNBS-Induced UC in Vehicle Treated Control Group, (Group 1):
# Rats were administered of 0.5% vehicle carboxy methylcellulose, (CMC), twice daily starting 24 hours after the instillation of TNBS.
# At the termination of the study on DAY 7, the average colon weight in the diseased rats was 5.904±2.208 g, the average colon length was 11.0±1.4 cm and the average distal colon width was 3.1±1.0 cm. Severe adhesions involving multiple intestinal loops, severe stricture resulting in proximal colon distension, ulcers of 6.4±0.4 cm in length, and colonic wall thickness of 3.5±0.8 mm combined to yield an overall colonic score of 11.5±0.8 in the diseased rats. […] Subacute inflammation (sub/mucosal and transmural/serosal were graded separately) was characterized by infiltration and aggregation of neutrophils, eosinophils, lymphocytes, plasma cells, and macrophages. Mucosal necrosis was characterized by damage to, necrosis of, or complete loss of colonic glands. Erosions were characterized by coagulative necrosis or loss of surface epithelium superficial to the muscularis mucosae. Submucosal edema was characterized by expansion of the submucosa by clear space or pale eosinophilic fluid, variably accompanied by dilation of lymphatic vessels and similar edematous expansion of the lamina propria. Epithelial hyperplasia was characterized by elongation of colonic glands and increased numbers of epithelial mitotic figures.
# [2] = 10 mg/kg once daily oral, starting 24 hours after TNBS
# [3] = Group 2, prednisolone 10 mg/kg once daily oral, DAY 7
structure (smiles),measurement,setting,value
"Cc1ccccc1NC(=O)C(=O)N[C@@H](C)C(=O)N[C@@H](CCC(=O)O)C(=O)COc1c(F)c(F)cc(F)c1F [Example 21, (S)-4-((S)-2-(2-((2-methylphenyl)amino)-2-oxoacetamido)propanamido)-5-oxo-6-(2,3,5,6-tetrafluorophenoxy)hexanoic acid]",IC50,Caspase-3,≥ 1 µM
same,IC50,Caspase-1,≤ 0.01 µM
same,IC50,Caspase 7,≥ 1 µM
same,IC50,Caspase 6,≥ 1 µM
"COc1ccccc1NC(=O)C(=O)N[C@@H](C)C(=O)N[C@@H](CCC(=O)O)C(=O)COc1c(F)c(F)cc(F)c1F [Example 22, (S)-4-((S)-2-(2-((2-methyoxyphenyl)amino)-2-oxoacetamido)propanamido)-5-oxo-6-(2,3,5,6-tetrafluorophenoxy)hexanoic acid]",IC50,Caspase-3,≥ 1 µM
same,IC50,Caspase-1,≤ 0.01 µM
same,IC50,Caspase 7,≥ 1 µM
same,IC50,Caspase 6,≥ 1 µM
"COc1cccc(NC(=O)C(=O)N[C@@H](C)C(=O)N[C@@H](CCC(=O)O)C(=O)COc2c(F)c(F)cc(F)c2F)c1 [Example 23, (S)-4-((S)-2-(2-((3-methyoxyphenyl)amino)-2-oxoacetamido)propanamido)-5-oxo-6-(2,3,5,6-tetrafluorophenoxy)hexanoic acid]",IC50,Caspase-3,≥ 1 µM
same,IC50,Caspase-1,≤ 0.01 µM
same,IC50,Caspase 7,≥ 1 µM
same,IC50,Caspase 6,≥ 1 µM
"COc1ccc(NC(=O)C(=O)N[C@@H](C)C(=O)N[C@@H](CCC(=O)O)C(=O)COc2c(F)c(F)cc(F)c2F)cc1 [Example 24, (S)-4-((S)-2-(2-((4-methyoxyphenyl)amino)-2-oxoacetamido)propanamido)-5-oxo-6-(2,3,5,6-tetrafluorophenoxy)hexanoic acid]",IC50,Caspase-3,≥ 1 µM
same,IC50,Caspase-1,≤ 0.01 µM
same,IC50,Caspase 7,≥ 1 µM
same,IC50,Caspase 6,≥ 1 µM
Cc1ccc(NC(=O)C(=O)N[C@@H](C)C(=O)N[C@@H](CCC(=O)O)C(=O)COc2c(F)c(F)cc(F)c2F)nc1 [Example 25],IC50,Caspase-3,≥ 1 µM
same,IC50,Caspase-1,≤ 0.01 µM
same,IC50,Caspase 7,≥ 1 µM
same,IC50,Caspase 6,≥ 1 µM
"C[C@H](NC(=O)C(=O)Nc1cccc(C(F)(F)F)c1)C(=O)N[C@@H](CCC(=O)O)C(=O)COc1c(F)c(F)cc(F)c1F [Example 26, (S)-5-oxo-4-((S)-2-(2-oxo-2-((3-(trifluoromethyl)phenyl)amino)acetamido)propanamido)-6-(2,3,5,6-tetrafluorophenoxy) hexanoic acid]",IC50,Caspase-3,≥ 1 µM
same,IC50,Caspase-1,≤ 0.01 µM
same,IC50,Caspase 7,≥ 1 µM
same,IC50,Caspase 6,≥ 1 µM
"C[C@H](NC(=O)C(=O)Nc1ccc(C(F)(F)F)cc1)C(=O)N[C@@H](CCC(=O)O)C(=O)COc1c(F)c(F)cc(F)c1F [Example 27, (S)-5-oxo-4-((S)-2-(2-oxo-2-((4-(trifluoromethyl)phenyl)amino)acetamido)propanamido)-6-(2,3,5,6-tetrafluorophenoxy) hexanoic acid]",IC50,Caspase-3,≥ 1 µM
same,IC50,Caspase-1,≤ 0.01 µM
same,IC50,Caspase 7,≥ 1 µM
same,IC50,Caspase 6,≥ 1 µM
"C[C@H](NC(=O)C(=O)Nc1c(F)cccc1F)C(=O)N[C@@H](CCC(=O)OCc1ccccc1)C(=O)COc1c(F)c(F)cc(F)c1F [Example 28, benzyl(S)-4-((S)-2-(2-((2,6-difluorophenyl)amino)-2-oxoacetamido)propanamido)-5-oxo-6-(2,3,5,6-tetrafluorophenoxy)hexanoate]",IC50,Caspase-3,≥ 1 µM
same,IC50,Caspase-1,≤ 0.01 µM
same,IC50,Caspase 7,≥ 1 µM
same,IC50,Caspase 6,≥ 1 µM
"C[C@H](NC(=O)C(=O)Nc1ccc(Cl)cn1)C(=O)N[C@@H](CCC(=O)O)C(=O)COc1c(F)c(F)cc(F)c1F [Example 29, (S)-4-((S)-2-(2-((5-chloropyridin-2-yl)amino)-2-oxoacetamido)propanamido)-5-oxo-6-(2,3,5,6-tetrafluorophenoxy)hexanoic acid]",IC50,Caspase-3,≥ 1 µM
same,IC50,Caspase-1,≤ 0.01 µM
same,IC50,Caspase 7,≥ 1 µM
same,IC50,Caspase 6,≥ 1 µM
"CC(=O)c1ccc(NC(=O)C(=O)N[C@@H](C)C(=O)N[C@@H](CCC(=O)O)C(=O)COc2c(F)c(F)cc(F)c2F)cc1 [Example 30, (S)-4-((S)-2-(2-((4-acetylphenyl)amino)-2-oxoacetamido)propanamido)-5-oxo-6-(2,3,5,6-tetrafluorophenoxy)hexanoic acid]",IC50,Caspase-3,≥ 1 µM
same,IC50,Caspase-1,≤ 0.01 µM
same,IC50,Caspase 7,≥ 1 µM
same,IC50,Caspase 6,≥ 1 µM
"C[C@H](NC(=O)C(=O)Nc1cccc(-c2nnn[nH]2)c1)C(=O)N[C@@H](CCC(=O)O)C(=O)COc1c(F)c(F)cc(F)c1F [Example 31, (S)-4-((S)-2-(2-((3-(1H-tetrazol-5-yl)phenyl)amino)-2-oxoacetamido)propanamido)-5-oxo-6-(2,3,5,6-tetrafluorophenoxy)hexanoic acid]",IC50,Caspase-3,≥ 1 µM
same,IC50,Caspase-1,≤ 0.01 µM
same,IC50,Caspase 7,≥ 1 µM
same,IC50,Caspase 6,≥ 1 µM
"C[C@H](NC(=O)C(=O)Nc1ccccc1C#N)C(=O)N[C@@H](CCC(=O)O)C(=O)COc1c(F)c(F)cc(F)c1F [Example 32, (S)-4-((S)-2-(2-((2-cyanophenyl)amino)-2-oxoacetamido)propanamido)-5-oxo-6-(2,3,5,6-tetrafluorophenoxy)hexanoic acid]",IC50,Caspase-3,≥ 1 µM
same,IC50,Caspase-1,≤ 0.01 µM
same,IC50,Caspase 7,≥ 1 µM
same,IC50,Caspase 6,≥ 1 µM
"C[C@]12C=CC(=O)C=C1CC[C@@H]1[C@@H]2[C@@H](O)C[C@@]2(C)[C@H]1CC[C@]2(O)C(=O)CO [Prednisolone, reference compound]",all measured colon parameters,[1]; [2],significantly improved
same,animal health as reflected by body weight,[1]; [2],improved animal health by DAY 4
same,average inhibition of the histological parameters,[1]; [2],40%
same,reduction in the overall colonic score,[1]; [2],67%
same,"colon histology: Edema, Submucosal, Mean",[1]; [3],2.3
same,"colon histology: Erosion/ Ulceration, Mean",[1]; [3],2.9
same,"colon histology: Hyperplasia, Epithelial, Mean",[1]; [3],2.9
same,"colon histology: Necrosis, Mucosal/ Gland Loss, Mean",[1]; [3],2.9
same,"colon histology: SUM Score, Mean",[1]; [3],16.3
same,"colon histology: Subacute Inflammation, Mucosal/ Submucosal, Mean",[1]; [3],3.5
same,"colon histology: Subacute Inflammation, Transmural/ Serosal, Mean",[1]; [3],2.8
same,"average animal weight, Mean","[1]; Group 2, prednisolone 10 mg/kg once daily oral, study day 0",235 g
same,"average animal weight, Mean","[1]; Group 2, prednisolone 10 mg/kg once daily oral, study day 1",232 g
same,"average animal weight, Mean","[1]; Group 2, prednisolone 10 mg/kg once daily oral, study day 2",221 g
same,"average animal weight, Mean","[1]; Group 2, prednisolone 10 mg/kg once daily oral, study day 3",223 g
same,"average animal weight, Mean","[1]; Group 2, prednisolone 10 mg/kg once daily oral, study day 4",223 g
same,"average animal weight, Mean","[1]; Group 2, prednisolone 10 mg/kg once daily oral, study day 5",227 g
same,"average animal weight, Mean","[1]; Group 2, prednisolone 10 mg/kg once daily oral, study day 6",227 g
same,"average animal weight, Mean","[1]; Group 2, prednisolone 10 mg/kg once daily oral, study day 7",229 g
same,"average animal weight, Mean","[1]; Group 2, prednisolone 10 mg/kg once daily oral, study day −1",249 g
same,"average animal weight, Mean","[1]; Group 2, prednisolone 10 mg/kg once daily oral, study day −5",222 g
